Results from US6436971B2, “Use of PDE 4-specific inhibitors to reduce the severity of a bacterial infection after a respiratory viral infection” (SmithKline Beecham Corporation, priority 2000, dated 2002).

Tested on: S. pneumoniae (strain #0100993)
Assay: Sub-lethal influenza infection followed by S. pneumoniae co-infection, survival (LD50) after PDE 4 inhibitor pretreatment
Format: in vivo, mice

In the case of `COc1ccc([C@]2(C#N)CC[C@@H](C(=O)O)CC2)cc1OC1CCCC1` [Ariflo, cis-4-cyano-4-[3-(cyclopentyloxy)-4-methoxyphenyl]cyclohexane-1-carboxylic acid], the “LD50 of S. pneumoniae in treated mice” value (10 mg/kg orally once daily on days 0 to 9, S. pneumoniae challenge IN on day 9, control diluent LD50 72) was 252 cfu/mouse and the “LD50 of S. pneumoniae in treated mice” value (30 mg/kg orally once daily on days 0 to 9, S. pneumoniae challenge IN on day 9, control diluent LD50 72) was 221 cfu/mouse.
